Laboratory results reported in PubChem BioAssay (NCI).
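Results reflect a 48-hour exposure of cells in 96-well plates to compound at five concentrations. Abbreviation: GI50, concentration required for 50% inhibition of growth. TGI: total growth inhibition.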

Key:
Experiment in all cases: growth of human tumour cells (NCI), 48 h
[1] = tested on: NCI-H522 lung
[2] = tested on: SF-268 CNS
[3] = tested on: KM12 colon
[4] = tested on: SNB-19 CNS
[5] = tested on: HCT-116 colon
[6] = tested on: HL-60(TB) leukemia
[7] = tested on: HCT-15 colon
[8] = tested on: UO-31 renal
[9] = tested on: HOP-62 NSCLC
[10] = tested on: SF-539 CNS
[11] = tested on: IGROV1 ovarian
[12] = tested on: EKVX NSCLC
[13] = tested on: SK-MEL-2 melanoma
[14] = tested on: MDA-MB-231 breast
[15] = tested on: HT29 colon
[16] = tested on: SN12C renal
[17] = tested on: OVCAR-4 ovarian
[18] = tested on: CCRF-CEM leukemia
[19] = tested on: A549 NSCLC
[20] = tested on: HOP-92 NSCLC
[21] = tested on: OVCAR-8 ovarian
[22] = tested on: DU-145 prostate
[23] = tested on: HCC-2998 colon
[24] = tested on: U251 CNS
[25] = tested on: OVCAR-5 ovarian
[26] = tested on: MDA-MB-435
[27] = tested on: TK-10 renal
[28] = tested on: NCI-H226 lung
[29] = tested on: BT-549 breast
[30] = tested on: NCI/ADR-RES ovarian
[31] = tested on: K-562 leukemia
[32] = tested on: LOX IMVI melanoma
[33] = tested on: RPMI-8226 leukemia
[34] = tested on: UACC-257 melanoma
[35] = tested on: NCI-H460 lung
[36] = tested on: HS 578T breast
[37] = tested on: NCI-H23 lung
[38] = tested on: 786-0 renal
[39] = tested on: SF-295 CNS
[40] = tested on: MALME-3M melanoma
[41] = tested on: UACC-62 melanoma
[42] = tested on: ACHN renal
[43] = tested on: A498 renal
[44] = tested on: COLO 205 colon
[45] = tested on: MCF7 breast
[46] = tested on: SW-620 colon
[47] = tested on: PC-3 prostate
[48] = tested on: RXF 393 renal
[49] = tested on: SNB-75 CNS
[50] = tested on: M14 melanoma
[51] = tested on: CAKI-1 renal
[52] = tested on: MOLT-4 leukemia
[53] = tested on: SK-MEL-28 melanoma
[54] = tested on: T-47D breast
[55] = tested on: OVCAR-3 ovarian
[56] = tested on: SK-OV-3 ovarian
[57] = tested on: SK-MEL-5 melanoma

O=C1C=CC2(O)OC/C(=C\c3ccccc3)C(O)=C2C1=O (stereo not drawn)
GI50 [1]: 0.196 µM
TGI [1]: 0.535 µM
GI50 [2]: 2.1 µM
TGI [2]: 7.08 µM
GI50 [3]: 1.4 µM
TGI [3]: 3.02 µM
GI50 [4]: 2.65 µM
TGI [4]: 9.7 µM
GI50 [5]: 1.88 µM
TGI [5]: 4.08 µM
GI50 [6]: 0.517 µM
TGI [6]: 7.76 µM
GI50 [7]: 0.868 µM
TGI [7]: 3.38 µM
GI50 [8]: 0.722 µM
TGI [8]: 2.03 µM
GI50 [9]: 2.89 µM
TGI [9]: 9.32 µM
GI50 [10]: 1.24 µM
TGI [10]: 2.87 µM
GI50 [11]: 1.83 µM
TGI [11]: 9.7 µM
GI50 [12]: 1.9 µM
TGI [12]: 5.43 µM
GI50 [13]: 2.02 µM
TGI [13]: 5.77 µM
GI50 [14]: 0.648 µM
TGI [14]: 3.51 µM
GI50 [15]: 3.62 µM
TGI [15]: 11.8 µM
GI50 [16]: 1.21 µM
TGI [16]: 8.38 µM
GI50 [17]: 2.37 µM
TGI [17]: 8.87 µM
GI50 [18]: 0.534 µM
TGI [18]: 25.9 µM
GI50 [19]: 2.52 µM
TGI [19]: 6.88 µM
GI50 [20]: 1.27 µM
TGI [20]: 3.59 µM
GI50 [21]: 2.71 µM
TGI [21]: 10.3 µM
GI50 [22]: 2.51 µM
TGI [22]: 9.36 µM
GI50 [23]: 1.82 µM
TGI [23]: 3.32 µM
GI50 [24]: 1.39 µM
TGI [24]: 3.03 µM
GI50 [25]: 2.17 µM
TGI [25]: 4.5 µM
GI50 [26]: 1.95 µM
TGI [26]: 4.74 µM
GI50 [27]: 2.99 µM
TGI [27]: 7.84 µM
GI50 [28]: 3.11 µM
TGI [28]: 31.4 µM
GI50 [29]: 2.02 µM
TGI [29]: 6.98 µM
GI50 [30]: 2.57 µM
TGI [30]: 12.7 µM
GI50 [31]: 0.476 µM
TGI [31]: > 100 µM
GI50 [32]: 1.4 µM
TGI [32]: 2.76 µM
GI50 [33]: 0.285 µM
TGI [33]: 0.838 µM
GI50 [34]: 1.82 µM
TGI [34]: 4.5 µM
GI50 [35]: 1.98 µM
TGI [35]: 4.32 µM
GI50 [36]: 0.259 µM
TGI [36]: 3 µM
GI50 [37]: 1.65 µM
TGI [37]: 3.38 µM
GI50 [38]: 1.3 µM
TGI [38]: 3.04 µM
GI50 [39]: 2.58 µM
TGI [39]: 6.32 µM
GI50 [40]: 1.51 µM
TGI [40]: 5.15 µM
GI50 [41]: 1.51 µM
TGI [41]: 3.76 µM
GI50 [42]: 1.53 µM
TGI [42]: 2.92 µM
GI50 [43]: 10.8 µM
TGI [43]: 22.8 µM
GI50 [44]: 2.63 µM
TGI [44]: 6.33 µM
GI50 [45]: 1.22 µM
TGI [45]: 10.2 µM
GI50 [46]: 1.6 µM
TGI [46]: 3.68 µM
GI50 [47]: 1.35 µM
TGI [47]: 4.19 µM
GI50 [48]: 1.5 µM
TGI [48]: 2.95 µM
GI50 [49]: 1.95 µM
TGI [49]: 9.68 µM
GI50 [50]: 2.95 µM
TGI [50]: 11.7 µM
GI50 [51]: 1.59 µM
TGI [51]: 3.2 µM
GI50 [52]: 0.791 µM
TGI [52]: 14.4 µM
GI50 [53]: 2.59 µM
TGI [53]: 6.41 µM
GI50 [54]: 2.47 µM
TGI [54]: 10.6 µM
GI50 [55]: 1.14 µM
TGI [55]: 3.23 µM
GI50 [56]: 15.2 µM
TGI [56]: > 100 µM
GI50 [57]: 1.57 µM
TGI [57]: 2.98 µM

c1ccc2nc(N/N=C3\CCCCC3C3CCCCC3)ccc2c1 (stereo not drawn)
GI50 [1]: 4.97 µM
TGI [1]: 20.4 µM
GI50 [2]: 10.8 µM
TGI [2]: 24.9 µM
GI50 [3]: 4.27 µM
TGI [3]: 15.7 µM
GI50 [4]: 11.4 µM
TGI [4]: 24.6 µM
GI50 [5]: 3.32 µM
TGI [5]: 13.5 µM
GI50 [6]: 3.74 µM
TGI [6]: 25.6 µM
GI50 [7]: 3.52 µM
TGI [7]: 14.8 µM
GI50 [8]: 2.89 µM
TGI [8]: 14.4 µM
GI50 [9]: 11.8 µM
TGI [9]: 25.7 µM
GI50 [10]: 7.69 µM
TGI [10]: 21.4 µM
GI50 [11]: 2.92 µM
TGI [11]: 15.4 µM
GI50 [12]: 5.22 µM
TGI [12]: 20.2 µM
GI50 [13]: 3.48 µM
TGI [13]: 16.6 µM
GI50 [14]: 5.49 µM
TGI [14]: 20.5 µM
GI50 [15]: 3.7 µM
TGI [15]: 14.6 µM
GI50 [16]: 6.54 µM
TGI [16]: 21.1 µM
GI50 [17]: 3.9 µM
TGI [17]: 22.8 µM
GI50 [18]: 2.83 µM
TGI [18]: 14 µM
GI50 [19]: 6.26 µM
TGI [19]: 29.1 µM
GI50 [20]: 2.2 µM
TGI [20]: 10 µM
GI50 [21]: 11.2 µM
TGI [21]: 29 µM
GI50 [22]: 11.9 µM
TGI [22]: 24.8 µM
GI50 [23]: 3.46 µM
TGI [23]: 14 µM
GI50 [24]: 6.44 µM
TGI [24]: 20.8 µM
GI50 [25]: 8.27 µM
TGI [25]: 21.5 µM
GI50 [26]: 6.95 µM
TGI [26]: 21.3 µM
GI50 [27]: 6.72 µM
TGI [27]: 19.5 µM
GI50 [28]: 6.3 µM
TGI [28]: 22.9 µM
GI50 [29]: 9.09 µM
TGI [29]: 22.1 µM
GI50 [30]: 5.29 µM
TGI [30]: 21 µM
GI50 [31]: 4.85 µM
TGI [31]: > 100 µM
GI50 [32]: 3.25 µM
TGI [32]: 13.1 µM
GI50 [33]: 2.02 µM
TGI [33]: 4.76 µM
GI50 [34]: 10.3 µM
TGI [34]: 27.5 µM
GI50 [35]: 3.84 µM
TGI [35]: 16.5 µM
GI50 [36]: 10.4 µM
TGI [36]: 30.9 µM
GI50 [37]: 3.89 µM
TGI [37]: 17.3 µM
GI50 [38]: 7.12 µM
TGI [38]: 21.6 µM
GI50 [39]: 2.4 µM
TGI [39]: 11.8 µM
GI50 [40]: 2.36 µM
TGI [40]: 12.9 µM
GI50 [41]: 3.89 µM
TGI [41]: 15.6 µM
GI50 [42]: 8.02 µM
TGI [42]: 20.8 µM
GI50 [43]: 11.4 µM
TGI [43]: 27.9 µM
GI50 [44]: 3.26 µM
TGI [44]: 12.7 µM
GI50 [45]: 2.46 µM
TGI [45]: 11.7 µM
GI50 [46]: 4.12 µM
TGI [46]: 16.3 µM
GI50 [47]: 3.07 µM
TGI [47]: 17.6 µM
GI50 [48]: 9.21 µM
TGI [48]: 26.9 µM
GI50 [49]: 11.1 µM
TGI [49]: 30.9 µM
GI50 [50]: 10.3 µM
TGI [50]: 26.5 µM
GI50 [51]: 4.78 µM
TGI [51]: 25.3 µM
GI50 [52]: 3.2 µM
TGI [52]: 17.1 µM
GI50 [53]: 10.9 µM
TGI [53]: 24.9 µM
GI50 [54]: 4.33 µM
TGI [54]: 21.8 µM
GI50 [55]: 13.9 µM
TGI [55]: 27 µM
GI50 [56]: 14.8 µM
TGI [56]: 34.3 µM
GI50 [57]: 2.58 µM
TGI [57]: 10.4 µM
